# Measured values from patent EP0873397B1, “NOVEL MICROORGANISM AND METHOD FOR ENVIRONMENTAL PURIFICATION USING THE SAME” (priority 1996, dated 1998).
# Assay: Analysis of byproducts in soil after trichloroethylene decomposition by UV-sterilized bacterial mass
# Description: After plating the suspension of the bacterial mass onto a petri dish to a thickness of about 1 mm, and then sterilized under irradiation of a 15 W ultra violet lamp with a wavelength of 260 nm for not less than 60 seconds at a distance of 40 cm from the light source.
# After that, trichloroethylene in the soil was allowed to be decomposed and the byproducts which is believed to be formed in association with trichloroethylene decomposition were analyzed in a similar manner to Example 13. Furthermore, in an experiment in which the suspension of sterilized bacterial mass at an amount of 1/100 of that of the NYG medium was inoculated or the suspension was plated as it was onto the NYG agar medium and cultured at 30°C, neither increase in turbidity of the culture liquid nor colony formation were observed, and thereby it was confirmed that there was complete sterilization.
smiles,measurement,value
OCC(Cl)(Cl)Cl [Trichloroethanol],Result (byproduct in the soil),Not detected
